Assay results taken from US12565485B2, “Solid forms of 1-((S)-4-((R)-7-(6-amino-4-methyl-3-(trifluoromethyl)pyridin-2-yl)-6-chloro-8-fluoro-2-(((s)-1-methylpyrrolidin-2-yl)methoxy)quinazolin-4-yl)-3-methylpiperazin-1-yl)prop-2-en-1-one” (Genentech, Inc., priority 2022, dated 2026).

Columns and labels:
Format in all cases: physicochemical
Liquid vapor diffusion = conditions: Compound A, RT
Procedure: Liquid vapor diffusion. Liquid vapor diffusion experiments were conducted in different solvent systems. […] This solution was then placed into a 20-mL vial with 3 mL of corresponding anti-solvent. The 20-mL vial was sealed with a cap and kept at RT allowing sufficient time for organic vapor to interact with the solution. The precipitates were isolated for XRPD analysis.
Liquid vapor diffusion Compound A. Liquid vapor diffusion experiments were conducted in different solvent systems. […] This solution was then placed into a 20-mL vial with 3 mL of corresponding anti-solvent. The 20-mL vial was sealed with a cap and kept at RT allowing sufficient time for organic vapor to interact with the solution. The precipitates were isolated for XRPD analysis.

[1] = VH-XRPD analysis / transitions of forms at varying relative humidity; conditions: ambient humidity levels 40%
From the text: FIG. 19. The sample then reverts to the original form upon reaching 30% RH. […] Transitions of Forms of Compound A at varying RH.

Solid vapor diffusion = conditions: RT; for Result: Compound A
Procedure: Solid vapor diffusion Compound A. Solid vapor diffusion experiments were conducted using 12 different solvents. […] The 20-mL vial was sealed with a cap and kept at RT allowing solvent vapor to interact with the sample.

Anti-solvent addition = conditions: Compound A
Procedure: Anti-solvent addition. A total of 12 anti-solvent addition experiments were carried out. […] The obtained precipitate was isolated for XRPD analysis.
Anti-solvent addition Compound A. A total of 14 anti-solvent addition experiments were carried out. […] The obtained precipitate was isolated for XRPD analysis.

[2] = solvent DMSO, anti-solvent EtOAc
[3] = solvent EtOH, anti-solvent MTBE
[4] = solvent THF, anti-solvent n-Heptane

C=CC(=O)N1CCN(c2nc(OC[C@@H]3CCCN3C)nc3c(F)c(-c4nc(N)cc(C)c4C(F)(F)F)c(Cl)cc23)[C@@H](C)C1 [Compound A Form A]
Result (Liquid vapor diffusion; [2]): Clear solution
Result (Liquid vapor diffusion; [3]): Gel
Result (Liquid vapor diffusion; solvent EtOH, anti-solvent n-Pentane): Gel
Result (Liquid vapor diffusion; solvent H2O, anti-solvent ACN): Gel
Result (Liquid vapor diffusion; solvent H2O, anti-solvent IPA): Gel
Result (Liquid vapor diffusion; solvent THF, anti-solvent MTBE): Gel
Result (Liquid vapor diffusion; [4]): Amorphous
Form after exposure to ambient humidity [1]: Compound A Form D was formed
Result (Solid vapor diffusion; 1,4-Dioxane vapor): Compound A Form A
Result (Solid vapor diffusion; ACN vapor): Compound A Form A
Result (Solid vapor diffusion; Acetone vapor): Compound A Form A
Result (Solid vapor diffusion; DCM vapor): Compound A Form A
Result (Solid vapor diffusion; DMF vapor): Compound A Form A
Result (Solid vapor diffusion; DMSO vapor): Compound A Form A
Result (Solid vapor diffusion; EtOAc vapor): Compound A Form A
Result (Solid vapor diffusion; EtOH vapor): Compound A Form A
Result (Solid vapor diffusion; H2O vapor): Compound A Form A
Result (Solid vapor diffusion; IPA vapor): Compound A Form A
Result (Solid vapor diffusion; MeOH vapor): Compound A Form A
Result (Solid vapor diffusion; THF vapor): Compound A Form A
Solid vapor diffusion result (XRPD form) (Solid vapor diffusion; 12 different solvents): Compound A Form A was obtained
Result (Anti-solvent addition; solvent 2-MeTHF, anti-solvent n-Heptane): Gel
Result (Anti-solvent addition; solvent DCM, anti-solvent MTBE): Compound A Form A
Result (Anti-solvent addition; solvent DCM, anti-solvent Toluene): Compound A Form B
Result (Anti-solvent addition; solvent DCM, anti-solvent n-Heptane): Compound A Form A
Result (Anti-solvent addition; [2]): Clear
Result (Anti-solvent addition; solvent EtOH, anti-solvent Anisole): Clear solution
Result (Anti-solvent addition; [3]): Gel
Result (Anti-solvent addition; solvent EtOH, anti-solvent n-Heptane): Compound A Form A
Result (Anti-solvent addition; solvent MeOH, anti-solvent MTBE): Gel
Result (Anti-solvent addition; solvent MeOH, anti-solvent Toluene): Compound A Form A
Result (Anti-solvent addition; solvent THF, anti-solvent EtOAc): Compound A Form A
Result (Anti-solvent addition; solvent THF, anti-solvent MTBE): Compound A Form A
Result (Anti-solvent addition; solvent THF, anti-solvent Toluene): Compound A Form A
Result (Anti-solvent addition; [4]): Compound A Form A
